# Results as given in PubChem BioAssay (NCI).
#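 The compound was tested at five concentrations on cells cultured in 96-well plates, with a 48-hour exposure period. Here, GI50 denotes the concentration required for 50% inhibition of growth. Definition used: TGI = concentration required for complete inhibition of growth.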
# Key:
# Assay in all cases: DTP human tumour cell line panel, 48 h
# 786-0 renal = test system: 786-0 renal
# A549 NSCLC = test system: A549 NSCLC
# CCRF-CEM leukemia = test system: CCRF-CEM leukemia
# HCC-2998 colon = test system: HCC-2998 colon
# LOX IMVI melanoma = test system: LOX IMVI melanoma
# M14 melanoma = test system: M14 melanoma
# NCI-H460 lung = test system: NCI-H460 lung
# NCI-H522 lung = test system: NCI-H522 lung
# SK-MEL-5 melanoma = test system: SK-MEL-5 melanoma
# SN12C renal = test system: SN12C renal
SMILES,GI50 (786-0 renal) [µM],TGI (786-0 renal) [µM],GI50 (A549 NSCLC) [µM],TGI (A549 NSCLC) [µM],GI50 (CCRF-CEM leukemia) [µM],TGI (CCRF-CEM leukemia) [µM],GI50 (HCC-2998 colon) [µM],TGI (HCC-2998 colon) [µM],GI50 (LOX IMVI melanoma) [µM],TGI (LOX IMVI melanoma) [µM],GI50 (M14 melanoma) [µM],TGI (M14 melanoma) [µM],GI50 (NCI-H460 lung) [µM],TGI (NCI-H460 lung) [µM],GI50 (NCI-H522 lung) [µM],TGI (NCI-H522 lung) [µM],GI50 (SK-MEL-5 melanoma) [µM],TGI (SK-MEL-5 melanoma) [µM],GI50 (SN12C renal) [µM],TGI (SN12C renal) [µM]
O=S(=O)(CCOCc1ccc(-c2ccc3ncnc(Nc4ccc(OCc5cccc(F)c5)c(Cl)c4)c3c2)o1)c1ccccc1,> 25,> 25,> 25,> 25,> 25,> 25,> 25,> 25,> 25,> 25,> 25,> 25,> 25,> 25,> 25,> 25,> 25,> 25,> 25,> 25
CC(=O)[O-].CC(=O)[O-].CC(=O)[O-].CC(=O)[O-].[Mo+2].[Mo+2],> 100,> 100,> 100,> 100,> 100,> 100,> 100,> 100,> 100,> 100,> 100,> 100,> 100,> 100,> 100,> 100,> 100,> 100,> 100,> 100
CCC(=C(c1ccc(OCCCN(C)C)cc1)c1ccc(OCCCN(C)C)cc1)c1ccc(Cl)cc1,0.35,0.759,0.601,2.46,0.392,1.13,0.51,1.54,0.287,0.541,0.302,0.577,0.457,1.23,0.48,1.69,2.02,4.37,2.18,4.55
COCCOCCOCc1n(Cc2ccc3ccccc3n2)c2ccccc2[n+]1Cc1ccc2ccccc2c1,1.53,3.04,0.748,10.6,0.532,2.45,0.468,2.04,0.333,1.24,0.414,1.94,0.424,1.56,0.248,0.936,0.357,1.16,0.362,1.41
O=C/C(=C(/Cl)c1ccc(O)cc1)c1ccccc1,–,> 66.3,–,> 84.6,–,> 100,–,> 100,–,46.9,–,> 57.1,–,> 100,–,26.1,–,48.9,–,> 61.3
CSc1c(C)c(C)nn1-c1ccccc1,–,> 100,–,> 100,–,> 100,–,> 100,–,> 100,–,> 100,–,> 100,–,> 100,–,> 100,–,> 100
O=C(O)CCC(NC(=S)S)C(=O)O.[Na+].[Zn+2] (stereo not given),> 50,> 50,> 50,> 50,> 50,> 50,> 50,> 50,> 50,> 50,> 50,> 50,> 50,> 50,> 50,> 50,> 50,> 50,> 50,> 50
